For one experiment, the system named is adenylyl cyclase. Put plainly: Adenylyl cyclase activity (data not shown). The format is biochemical. An excerpt: The sGC heterodimer is composed of a α-subunit and a shorter β-subunit which presents in the N-terminal the prosthetic haem group bound to histidine-105.[27] Each subunit is composed of a haem-nitric oxide binding domain, a PAS-like domain, a coiled-coil bundle, and the C-terminal catalytic domain where turnover of GTP into cGMP occurs.[28] […] The two sites are different, and small molecules can bind to one or to both sites, thus showing a 1:1 or 1:2 binding ratio. We have previously shown by surface plasmon resonance (SPR) that ATP binds to both sites and may inhibit sGC activity via competition with GTP, highlighting the potential for allosteric regulation of the enzyme.[24] GC domains are also present in the membrane-bound natriuretic peptide receptors type-A and type-B. There receptors, also referred to as particulate GCs (pGCs), are activated by binding of natriuretic peptides to the extracellular domain of the receptors, leading to an increase in GTP turnover at the intracellular GC domain.[32–34] In this study we observed by SPR that compound 10 bound to the catalytic domain of sGC in a 1:1 ratio. […] However, activity against kinases or phosphodiesterases was not investigated.

Another experiment deals with T1, purified bovine lung sGC (Bos taurus, UniProt P16068+P19687).
T1 construct: screened at 100 μM against purified bovine lung sGC; purchased Enzo lifesciences ALX-202-039-C005; host or cells: bovine lung
T1 sequence (P19687 1-691): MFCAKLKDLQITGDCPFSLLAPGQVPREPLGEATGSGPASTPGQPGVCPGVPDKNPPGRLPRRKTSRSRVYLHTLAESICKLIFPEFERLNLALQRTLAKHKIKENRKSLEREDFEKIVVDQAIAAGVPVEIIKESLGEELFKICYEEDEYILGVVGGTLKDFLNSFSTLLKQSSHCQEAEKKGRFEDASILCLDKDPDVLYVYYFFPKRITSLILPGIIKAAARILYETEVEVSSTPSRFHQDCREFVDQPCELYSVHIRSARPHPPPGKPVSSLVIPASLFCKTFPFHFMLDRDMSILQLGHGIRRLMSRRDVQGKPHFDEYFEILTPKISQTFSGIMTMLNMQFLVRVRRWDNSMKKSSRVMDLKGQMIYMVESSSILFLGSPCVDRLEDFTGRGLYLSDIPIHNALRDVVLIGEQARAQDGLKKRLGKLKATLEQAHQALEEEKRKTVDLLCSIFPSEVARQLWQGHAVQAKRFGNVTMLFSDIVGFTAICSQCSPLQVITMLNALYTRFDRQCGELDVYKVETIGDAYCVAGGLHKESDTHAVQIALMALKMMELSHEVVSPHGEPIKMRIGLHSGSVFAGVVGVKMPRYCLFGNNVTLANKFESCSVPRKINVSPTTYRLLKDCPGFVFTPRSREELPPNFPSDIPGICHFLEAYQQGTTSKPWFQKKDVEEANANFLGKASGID
T1 sequence (P16068 1-619): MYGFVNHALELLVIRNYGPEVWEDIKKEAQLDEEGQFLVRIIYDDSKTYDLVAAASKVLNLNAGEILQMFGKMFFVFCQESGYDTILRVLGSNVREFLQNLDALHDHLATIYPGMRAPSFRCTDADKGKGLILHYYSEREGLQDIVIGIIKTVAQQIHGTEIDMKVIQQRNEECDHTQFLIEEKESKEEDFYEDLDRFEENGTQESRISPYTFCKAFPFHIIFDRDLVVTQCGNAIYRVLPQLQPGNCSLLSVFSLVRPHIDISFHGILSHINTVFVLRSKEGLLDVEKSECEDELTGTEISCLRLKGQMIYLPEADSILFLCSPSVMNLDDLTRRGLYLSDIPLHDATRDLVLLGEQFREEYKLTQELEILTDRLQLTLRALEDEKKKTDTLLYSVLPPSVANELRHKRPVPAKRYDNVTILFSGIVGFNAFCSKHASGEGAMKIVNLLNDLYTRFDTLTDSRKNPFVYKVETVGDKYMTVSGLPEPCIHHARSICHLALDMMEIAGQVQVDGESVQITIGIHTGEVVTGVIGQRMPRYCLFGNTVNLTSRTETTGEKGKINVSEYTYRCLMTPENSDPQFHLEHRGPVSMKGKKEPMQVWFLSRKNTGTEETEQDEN
The experiment is described as follows: Soluble guanylate cyclase activity assay (cGMP radioimmunoassay). The format is biochemical. The method, then: Virtual screening was performed by similarity searches using MACCS fingerprints at 85% and 75% Tanimoto of commercial libraries and the selected compounds were screened at 100 μM against purified bovine lung sGC using diethylamine NONOate (30 nM) as the NO donor. Enzyme activity was determined by measuring cGMP production using a standard cGMP [^3H] radioimmunoassay.[21,22]
[…] Compounds were added at 100 μM prior to adding the NO donor DEA/NO (30 nM) or clamped NO concentrations. cGMP generation was allowed to proceed for two minutes, after which aliquots were withdrawn and inactivated by boiling in 50 mM Tris, 4 mM EDTA buffer. cGMP formation was measured by a standard radioimmunoassay.

The target in the next experiment is T2, sGCcat (Homo sapiens, UniProt Q02108+Q02153).
T2 construct: a smaller construct of the catalytic domain (sGCcat)
T2 sequence (Q02108 481-608 limits assumed): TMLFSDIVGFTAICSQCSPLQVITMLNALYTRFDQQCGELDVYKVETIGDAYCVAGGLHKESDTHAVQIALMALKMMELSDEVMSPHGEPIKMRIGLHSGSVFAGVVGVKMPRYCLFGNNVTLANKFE
T2 sequence (Q02153 421-554 limits assumed): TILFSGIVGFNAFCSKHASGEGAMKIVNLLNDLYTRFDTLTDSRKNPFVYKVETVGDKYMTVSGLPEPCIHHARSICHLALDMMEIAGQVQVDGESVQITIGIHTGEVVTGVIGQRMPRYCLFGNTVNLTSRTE
The experiment is described as follows: SPR binding to catalytic domain of sGC. The protocol: We have previously described a surface plasmon resonance-based assay for the detection of binding of small molecules to full-length sGC and a smaller construct of the catalytic domain (sGCcat).[24] This assay was used to measure the binding of the compounds to sGCcat.[24] […] The position of the hydroxyl group can be changed whilst retaining binding strength and activity.
Surface plasmon resonance (SPR) experiments were performed with a Biacore T200 instrument at 25 °C. Data processing and analysis were performed using BIAevaluation software and Scrubber2. All sensorgrams were double referenced by subtracting the response in a reference flowcell and a blank sample. Materials and methods used were the same as previously published.[24]
A general note: SPR reads the build-up and loss of mass on a sensor chip optically.

SMILES strings stand for the structures. Read-outs that look alike come from different tables or passages of the source.

Usually Hill slope stands for the slope factor of the fitted curve. As a reminder, the IC50 is the point on the concentration scale where inhibition reaches its midpoint. Usually inhibition stands for the percentage by which the read-out fell short of the control. The Kd is the concentration at which binding is half-saturated. High values mean lower affinity, low ones higher affinity.

As to `O=[N+]([O-])c1ccc2nc(Nc3ccc(O)cc3)c(Nc3ccc(O)cc3)nc2c1` [Compound 10, 4,4′-((6-Nitroquinoxaline-2,3-diyl)bis(azanediyl))diphenol], the “activity on adenylyl cyclase” value with adenylyl cyclase (basal) and in the experiment on adenylyl cyclase (forskolin-stimulated) was “no activity” throughout. Further, the Hill slope at purified bovine lung sGC (GC activator cinaciguat 20 nM) and on purified bovine lung sGC (GC activator cinaciguat 1 μM) was 4 throughout. Besides, the IC50 turned out to be 25 ± 4 µM at purified bovine lung sGC (GC activator cinaciguat 20 nM, no NO, read-out: IC50 (μM) ± SE); 37 ± 40 µM on purified bovine lung sGC (GC activator cinaciguat 1 μM, no NO, read-out: IC50 (μM) ± SE); 21 ± 3 µM on purified bovine lung sGC (NO 0.3 nM, GTP 50 μM, read-out: IC50, NO-stimulated cGMP production by isolated sGC); 33 ± 4 µM on purified bovine lung sGC (NO 0.3 nM, GTP 200 μM, read-out: IC50, NO-stimulated cGMP production by isolated sGC); 33 ± 9 µM at purified bovine lung sGC (NO 0.3 nM, GTP 1000 μM, read-out: IC50, NO-stimulated cGMP production by isolated sGC); 19 ± 2 µM on purified bovine lung sGC (NO 10 nM, GTP 50 μM, read-out: IC50, NO-stimulated cGMP production by isolated sGC). Moreover, the IC50 came to 19 ± 1 µM at purified bovine lung sGC (NO 10 nM, GTP 200 μM, read-out: IC50, NO-stimulated cGMP production by isolated sGC) and 34 ± 2 µM at purified bovine lung sGC (NO 10 nM, GTP 1000 μM, read-out: IC50, NO-stimulated cGMP production by isolated sGC). Further, the “inhibition of cGMP production after enzyme activation with cinaciguat (in words)” value against purified bovine lung sGC (cinaciguat-activated, no NO) is “capable of inhibiting cGMP production”. The inhibition at 100 µM at purified bovine lung sGC (read-out: % inhibition of sGC activity at 100 μM compound) amounted to 99%; at purified bovine lung sGC (read-out: sGC activity% inhibition at 100 μM), 56.2 ± 22.4%. The Kd is 11.4 ± 1.8 µM on sGCcat and 11 µM on sGCcat (listed as D12). The “sGCcat (SPR) binding norm. resp. (RU)” value at sGCcat (Biacore T200, 25 °C) is recorded as 14.4 ± 1.7 RU. The “binding to sGCcat (in words)” value on sGCcat (discussion of Table 1) is “higher binding”.

Source of the values: paper PMC4558462, “A new small molecule inhibitor of soluble guanylate cyclase” (Bioorganic & Medicinal Chemistry, 2015).
